Columns and labels:
BTK-GFP = target: T1, BTK-GFP (Homo sapiens, UniProt Q06187+Q96SW2); test: BTK-GFP protein abundance flow cytometry assay in HEK293A cells; format: cell-based; conditions: 24 h; for BTK deg Amax %: % protein remaining at concentration of maximum degradation; for DC50: concentration at which 50% maximal degradation was observed
T1 construct: the BTK open reading frame (ORF) was first shuttled from a pcDNA-DEST40-BTK vector (Invitrogen library ID INV_20090504v1); expressed in transfected cells; host or cells: HEK293A cells (Invitrogen R70507), lentiviral transduction with pLenti6-BTK-GFP-Ires-RFP, blasticidin-selected
T1 sequence (Q06187 whole entry): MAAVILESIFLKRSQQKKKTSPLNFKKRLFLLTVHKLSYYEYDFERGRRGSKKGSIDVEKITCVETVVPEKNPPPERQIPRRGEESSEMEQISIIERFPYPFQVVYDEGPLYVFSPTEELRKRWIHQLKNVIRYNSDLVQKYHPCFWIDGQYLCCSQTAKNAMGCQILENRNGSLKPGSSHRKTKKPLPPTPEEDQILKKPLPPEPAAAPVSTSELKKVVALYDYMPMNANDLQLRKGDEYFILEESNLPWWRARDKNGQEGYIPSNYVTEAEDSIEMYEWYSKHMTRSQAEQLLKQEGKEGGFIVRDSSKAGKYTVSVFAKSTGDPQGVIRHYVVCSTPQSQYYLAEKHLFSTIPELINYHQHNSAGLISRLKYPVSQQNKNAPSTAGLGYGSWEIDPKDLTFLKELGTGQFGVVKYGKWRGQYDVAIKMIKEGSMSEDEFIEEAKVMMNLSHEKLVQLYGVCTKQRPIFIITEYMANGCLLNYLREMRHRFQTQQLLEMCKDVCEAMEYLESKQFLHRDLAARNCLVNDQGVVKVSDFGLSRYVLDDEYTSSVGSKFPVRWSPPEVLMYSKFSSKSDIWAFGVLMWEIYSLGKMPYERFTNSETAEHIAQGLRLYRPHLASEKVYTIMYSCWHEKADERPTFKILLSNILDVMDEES
T1 sequence (Q96SW2 whole entry): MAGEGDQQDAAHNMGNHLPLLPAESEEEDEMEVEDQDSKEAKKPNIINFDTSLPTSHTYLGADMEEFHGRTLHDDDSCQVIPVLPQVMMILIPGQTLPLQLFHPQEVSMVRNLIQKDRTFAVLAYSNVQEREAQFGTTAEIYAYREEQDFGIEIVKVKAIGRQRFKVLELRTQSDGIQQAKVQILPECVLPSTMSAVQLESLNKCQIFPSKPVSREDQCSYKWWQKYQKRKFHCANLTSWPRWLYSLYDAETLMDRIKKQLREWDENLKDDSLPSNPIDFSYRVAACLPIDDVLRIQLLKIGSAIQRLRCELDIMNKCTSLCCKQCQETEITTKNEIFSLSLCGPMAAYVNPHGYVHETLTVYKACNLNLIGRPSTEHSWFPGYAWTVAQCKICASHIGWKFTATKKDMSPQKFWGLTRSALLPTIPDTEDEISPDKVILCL
T1 sequence (Q16531 whole entry partner): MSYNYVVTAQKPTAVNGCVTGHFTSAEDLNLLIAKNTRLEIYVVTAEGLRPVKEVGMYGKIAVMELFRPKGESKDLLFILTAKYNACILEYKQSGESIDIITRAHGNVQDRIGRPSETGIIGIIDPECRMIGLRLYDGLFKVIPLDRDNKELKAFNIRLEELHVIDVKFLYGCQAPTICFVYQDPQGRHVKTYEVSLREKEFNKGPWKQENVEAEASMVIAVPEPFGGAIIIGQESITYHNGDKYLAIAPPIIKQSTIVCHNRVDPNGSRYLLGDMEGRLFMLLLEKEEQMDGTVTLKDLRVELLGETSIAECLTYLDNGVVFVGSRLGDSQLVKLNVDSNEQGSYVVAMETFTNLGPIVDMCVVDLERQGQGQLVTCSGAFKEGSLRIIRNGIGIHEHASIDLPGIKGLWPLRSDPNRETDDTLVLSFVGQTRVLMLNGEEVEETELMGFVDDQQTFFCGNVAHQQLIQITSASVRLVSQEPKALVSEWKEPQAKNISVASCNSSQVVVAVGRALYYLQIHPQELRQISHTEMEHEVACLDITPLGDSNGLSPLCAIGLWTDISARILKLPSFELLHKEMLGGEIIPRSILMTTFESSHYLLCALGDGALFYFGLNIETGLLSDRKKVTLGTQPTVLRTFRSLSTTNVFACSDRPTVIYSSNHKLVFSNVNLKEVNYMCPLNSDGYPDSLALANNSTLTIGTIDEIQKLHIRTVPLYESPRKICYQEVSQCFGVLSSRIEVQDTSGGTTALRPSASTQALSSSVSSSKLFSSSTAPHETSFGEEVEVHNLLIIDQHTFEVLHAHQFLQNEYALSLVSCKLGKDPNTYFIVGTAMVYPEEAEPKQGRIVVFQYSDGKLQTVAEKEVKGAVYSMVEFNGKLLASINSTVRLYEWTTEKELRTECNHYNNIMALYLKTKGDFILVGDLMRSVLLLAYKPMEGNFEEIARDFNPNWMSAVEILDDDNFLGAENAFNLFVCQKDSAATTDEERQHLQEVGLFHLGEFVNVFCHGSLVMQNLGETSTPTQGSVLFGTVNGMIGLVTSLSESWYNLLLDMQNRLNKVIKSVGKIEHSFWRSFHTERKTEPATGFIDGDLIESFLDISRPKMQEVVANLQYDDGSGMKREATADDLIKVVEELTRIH
Description: Compounds of the invention were tested in the following cellular assays. The terms in Table 1 are defined as follows: DC50 refers to the concentration at which 50% maximal degradation was observed; deg Amax is the extent of degradation and the value refers to the % protein remaining at the concentration at which maximum degradation is seen; Prol GI50 refers to the proliferation data and defines the concentration at which 50% growth inhibition was observed compared to the vehicle treated control at the end of the incubation time. TMD8 cells are BTK dependent and OCI-LY3 cells are BTK independent.
(§1) BTK-GFP and IKZF3-GFP Protein Abundance Flow Cytometry Assay in HEK293A Cells:
(§2) Degradation of BTK or IKZF3 was measured in HEK293A cells (Invitrogen R70507) expressing either BTK-GFP and RFP or IKZF3-GFP and RFP from a stably integrated bicistronic BTK-GFP-iresRFP or IKZF3-GFP-iresRFP construct, respectively. Reduction of the GFP signal measured by flow cytometry served as readout for BTK or IKZF3 degradation after degrader treatment.
(§3) Stable HEK293A-BTK-GFP-iresRFP cells were maintained in complete growth medium (DMEM high Glucose+10% FCS+1% L-Glutamine+1% NEAA+1% NaPyr.) with passaging performed twice per week. On Day 0, HEK293A-BTK-GFP-iresRFP or HEK293A-IKZF3-GFP-iresRFP and HEK293A-iresRFP cells were seeded at 10,000 cells/well in a 96-well microtiter plate in 260 μl complete medium. On Day 1, cells were treated in duplicate with 10-point 1:3 dilution series of compound using the HP D300 Digital Dispenser (Tecan). DMSO concentrations were normalized across the plate to 0.1%. On Day 2, after 24 h of incubation at 37° C., treatment media was discarded, cells rinsed with 100 ul/well PBS and then detached using 40 ul trypsin/well for 5 min. Trypsin was neutralized with 100 ul/well PBS+20% FCS). Flow cytometry was performed on the samples using the BD FACS CANTO II (Becton Dickinson). Cell identification was then performed using forward (FSC) vs. side scatter (SSC) plots. Single cell discrimination is performed using SSC-Width (SSC-W) vs. SSC-Height (SSC-H) plots. Median GFP values for 5,000 single cells are used to determine BTK levels. Median GFP values from HEK293A-iresRFP are used as a background signal and thus defining 0% BTK signal. Median GFP values from DMSO treated HEK293A-BTK-GFP-iresRFP or HEK293A-IKZF3-GFP-iresRFP are used to define 100% BTK signal for subsequent DC50 curves (concentration at 50% BTK degradation). GFP and RFP are read in the channels called FITC and PE, respectively.
(§4) Concentration response curves plotting relative reduction of the GFP signal (measured by flow cytometry) versus 10 compound concentrations (starting concentration 10 μM, 3 fold dilution steps) of the compounds allowed generation of DC50 values.

IKZF3-GFP = target: T2, IKZF3-GFP (Homo sapiens, UniProt Q9UKT9); test: IKZF3-GFP protein abundance flow cytometry assay in HEK293A cells; format: cell-based; conditions: 24 h, Table 1; for IKZF3 deg Amax %: % protein remaining at maximum degradation
T2 construct: gateway cloning of IKZF3 from a pENTR221-IKZF3(STOP-Leu) construct into the previously described pLenti6-DEST-GFP-Ires-RFP vector; expressed in transfected cells; host or cells: HEK293A cells (Invitrogen R70507), lentiviral transduction with pLenti6-IKZF3-GFP-Ires-RFP, blasticidin-selected
T2 sequence (Q96SW2 whole entry partner): as the sequence (Q96SW2 whole entry) above
T2 sequence (Q16531 whole entry partner): as the sequence (Q16531 whole entry partner) above
T2 sequence (Q9UKT9 whole entry): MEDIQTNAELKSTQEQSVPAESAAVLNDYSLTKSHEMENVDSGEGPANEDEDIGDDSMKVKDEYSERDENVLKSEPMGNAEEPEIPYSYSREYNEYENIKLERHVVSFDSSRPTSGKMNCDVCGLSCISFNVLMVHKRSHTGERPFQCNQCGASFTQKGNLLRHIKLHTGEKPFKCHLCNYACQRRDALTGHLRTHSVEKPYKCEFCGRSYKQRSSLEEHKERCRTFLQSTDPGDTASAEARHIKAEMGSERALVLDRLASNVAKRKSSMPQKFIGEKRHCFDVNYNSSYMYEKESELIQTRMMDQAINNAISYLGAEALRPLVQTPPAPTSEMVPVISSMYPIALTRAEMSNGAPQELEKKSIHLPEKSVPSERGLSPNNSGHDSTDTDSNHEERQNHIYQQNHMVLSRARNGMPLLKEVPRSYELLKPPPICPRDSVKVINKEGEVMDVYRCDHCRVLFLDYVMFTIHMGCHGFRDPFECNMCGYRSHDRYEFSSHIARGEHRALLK
Description: Compounds of the invention were tested in the following cellular assays. […] TMD8 cells are BTK dependent and OCI-LY3 cells are BTK independent.
as §1, §2, §3, §4
Data is shown in Table 2, in which, DC50 refers to the concentration at which 50% maximal degradation was observed; deg Amax is the extent of degradation and the value refers to the % protein remaining at the concentration at which maximum degradation is seen.

| Structure (SMILES) | BTK deg Amax % (BTK-GFP) [%] | DC50 (BTK-GFP) [nM] | IKZF3 deg Amax % (IKZF3-GFP) [%] | DC50 (IKZF3-GFP) [nM] |
| --- | --- | --- | --- | --- |
| COc1ccc(C(=O)N2CCC3(CCN(Cc4ccc(-c5cc6c(-c7cc(F)cc(NC(=O)N8C[C@@H](CC(C)C)[C@H](O)C8)c7C)ncnc6[nH]5)cc4)CC3)CC2)cc1N1CCC(=O)NC1=O (racemic) [Compound 5, trans-rac-N-(3-(6-(4-((9-(3-(2,4-Dioxotetrahydropyrimidin-1(2H)-yl)-4-methoxybenzoyl)-3,9-diazaspiro[5.5]undecan-3-yl)methyl)phenyl)-7H-pyrrolo[2,3-d]pyrimidin-4-yl)-5-fluoro-2-methylphenyl)-3-hydroxy-4-isobutylpyrrolidine-1-carboxamide] | 4 | 4.9 | 103.7 | > 3300 |
| COc1ccc(C(=O)N2CCC3(CCN(Cc4ccc(-c5cc6c(-c7cc(F)cc(NC(=O)N8C[C@@H](CC(C)C)[C@H](O)C8)c7C)ncnc6[nH]5)cc4)CC3)CC2)cc1N1CCC(=O)NC1=O [Compound 1, (3S,4R)—N-(3-(6-(4-((9-(3-(2,4-Dioxotetrahydropyrimidin-1(2H)-yl)-4-methoxybenzoyl)-3,9-diazaspiro[5.5]undecan-3-yl)methyl)phenyl)-7H-pyrrolo[2,3-d]pyrimidin-4-yl)-5-fluoro-2-methylphenyl)-3-hydroxy-4-isobutylpyrrolidine-1-carboxamide] | 15 | 164 | 102.7 | > 1100 |
| COc1ccc(C(=O)N2CCC(OCCN3CCN(Cc4ccc(-c5cc6c(-c7cc(F)cc(NC(=O)N8C[C@H](CC(C)C)[C@@H](O)C8)c7C)ncnc6[nH]5)cc4)CC3)CC2)cc1N1CCC(=O)NC1=O [Compound 2, (3R,4S)—N-(3-(6-(4-((4-(2-((1-(3-(2,4-Dioxotetrahydropyrimidin-1 (2H)-yl)-4-methoxybenzoyl)piperidin-4-yl)oxy)ethyl)piperazin-1-yl)methyl)phenyl)-7H-pyrrolo[2,3-d]pyrimidin-4-yl)-5-fluoro-2-methylphenyl)-3-hydroxy-4-isobutylpyrrolidine-1-carboxamide] | 2 | 1.4 | 101.8 | > 3300 |
| COc1ccc(C(=O)N2CCC3(CCN(Cc4ccc(-c5cc6c(-c7cc(F)cc(NC(=O)N8C[C@H](CC(C)C)[C@@H](O)C8)c7C)ncnc6[nH]5)cc4)CC3)CC2)cc1N1CCC(=O)NC1=O [Compound 6, (3R,4S)—N-(3-(6-(4-((9-(3-(2,4-Dioxotetrahydropyrimidin-1(2H)-yl)-4-methoxybenzoyl)-3,9-diazaspiro[5.5]undecan-3-yl)methyl)phenyl)-7H-pyrrolo[2,3-d]pyrimidin-4-yl)-5-fluoro-2-methylphenyl)-3-hydroxy-4-isobutylpyrrolidine-1-carboxamide] | 6.2 | 3.4 | 93.5 | > 3300 |
| COc1ccc(C(=O)N2CCC(OC3CCN(Cc4ccc(-c5cc6c(-c7cc(F)cc(NC(=O)N8C[C@H](CC(C)C)[C@@H](O)C8)c7C)ncnc6[nH]5)cc4)CC3)CC2)cc1N1CCC(=O)NC1=O [Compound 8, (3R,4S)—N-(3-(6-(4-((4-((1-(3-(2,4-Dioxotetrahydropyrimidin-1(2H)-yl)-4-methoxybenzoyl)piperidin-4-yl)oxy)piperidin-1-yl)methyl)phenyl)-7H-pyrrolo[2,3-d]pyrimidin-4-yl)-5-fluoro-2-methylphenyl)-3-hydroxy-4-isobutylpyrrolidine-1-carboxamide] | 4.5 | 1 | 107.4 | > 1000 |
| COc1ccc(C(=O)N2CCC(CN3CCC(Oc4ccc(-c5cc6c(-c7cc(F)cc(NC(=O)N8C[C@H](CC(C)C)[C@@H](O)C8)c7C)ncnc6[nH]5)cc4)CC3)CC2)cc1N1CCC(=O)NC1=O [Compound 11, (3R,4S)—N-(3-(6-(4-((1-((1-(3-(2,4-Dioxotetrahydropyrimidin-1 (2H)-yl)-4-methoxybenzoyl)piperidin-4-yl)methyl)piperidin-4-yl)oxy)phenyl)-7H-pyrrolo[2,3-d]pyrimidin-4-yl)-5-fluoro-2-methylphenyl)-3-hydroxy-4-isobutylpyrrolidine-1-carboxamide] | 2.3 | 0.6 | 96.7 | > 10000 |
| COc1ccc(C(=O)N2CCC(CN3CCN(Cc4ccc(-c5cc6c(-c7cc(F)cc(NC(=O)N8C[C@H](CC(C)C)[C@@H](O)C8)c7C)ncnc6[nH]5)cc4)CC3)CC2)cc1N1CCC(=O)NC1=O [Compound 12, (3R,4S)—N-(3-(6-(4-((4-((1-(3-(2,4-Dioxotetrahydropyrimidin-1(2H)-yl)-4-methoxybenzoyl)piperidin-4-yl)methyl)piperazin-1-yl)methyl)phenyl)-7H-pyrrolo[2,3-d]pyrimidin-4-yl)-5-fluoro-2-methylphenyl)-3-hydroxy-4-isobutylpyrrolidine-1-carboxamide] | 4.3 | 0.7 | 104.0 | > 1100 |
| COc1ccc(C(=O)N2CCC(OC3CCN(CCc4ccc(-c5cc6c(-c7cc(F)cc(NC(=O)N8C[C@H](CC(C)C)[C@@H](O)C8)c7C)ncnc6[nH]5)cc4)CC3)CC2)cc1N1CCC(=O)NC1=O [Compound 13, (3R,4S)—N-(3-(6-(4-(2-(4-((1-(3-(2,4-Dioxotetrahydropyrimidin-1(2H)-yl)-4-methoxybenzoyl)piperidin-4-yl)oxy)piperidin-1-yl)ethyl)phenyl)-7H-pyrrolo[2,3-d]pyrimidin-4-yl)-5-fluoro-2-methylphenyl)-3-hydroxy-4-isobutylpyrrolidine-1-carboxamide] | 2.9 | 0.5 | 99.7 | > 3300 |
| COc1ccc(C(=O)N2CCC3(CCN(CCc4ccc(-c5cc6c(-c7cc(F)cc(NC(=O)N8C[C@H](CC(C)C)[C@@H](O)C8)c7C)ncnc6[nH]5)cc4)CC3)CC2)cc1N1CCC(=O)NC1=O [Compound 15, (3R,4S)—N-(3-(6-(4-(2-(9-(3-(2,4-Dioxotetrahydropyrimidin-1(2H)-yl)-4-methoxybenzoyl)-3,9-diazaspiro[5.5]undecan-3-yl)ethyl)phenyl)-7H-pyrrolo[2,3-d]pyrimidin-4-yl)-5-fluoro-2-methylphenyl)-3-hydroxy-4-isobutylpyrrolidine-1-carboxamide] | 4 | 1.8 | 100.2 | > 5500 |
| COc1ccc(C(=O)N2CCC3(CCN(CCc4ccc(-c5cc6c(-c7cc(F)cc(NC(=O)N8C[C@@H](CC(C)C)[C@H](O)C8)c7C)ncnc6[nH]5)cc4)CC3)CC2)cc1N1CCC(=O)NC1=O [Compound 19, (3S,4R)—N-(3-(6-(4-(2-(9-(3-(2,4-dioxotetrahydropyrimidin-1(2H)-yl)-4-methoxybenzoyl)-3,9-diazaspiro[5.5]undecan-3-yl)ethyl)phenyl)-7H-pyrrolo[2,3-d]pyrimidin-4-yl)-5-fluoro-2-methylphenyl)-3-hydroxy-4-isobutylpyrrolidine-1-carboxamide] | 13 | 85.5 | 102.4 | > 1100 |
